# Measurements reported in patent US20190203240A1, “METHODS FOR THE PRODUCTION OF RHAMNOSYLATED FLAVONOIDS” (Universitaet Hamburg, priority 2016, published 2019).
# “And” between values parts separate entries of the source, which are not always exact repeats. Equal values may be shown once.
# How the values were obtained:
# [1] = test system: lipid peroxides (C11-fluor) in NHEK cells; assay: Protection against UV-induced lipid peroxide in NHEK (C11-fluor probe, flow cytometry); type: cell-based, human; conditions: 240 mJ/cm^2 UVB (3538 mJ/cm^2 UVA), 50 μM
# Protocol: Pre-incubated NHEK were incubated with the test compound for 24 h. Then the specific fluorescence probe for the measurement of hydrogen peroxide (DHR) or lipid peroxides (C11-fluor) was added and incubated for 45 min. Irradiation occurred with in H2O2 determination UVB at 180 mJ/cm^2 (+UVA at 2839 mJ/cm^2) or UVB at 240 mJ/cm^2 (+UVA at 3538 mJ/cm^2) in lipid peroxide, respectively, using a SOL500 Sun Simulator lamp. After irradiation the cells were post-incubated for 30 min before flow-cytometry analysis.
# HaCaT cells = assay: Glucose uptake (2-NBDG) in HaCaT keratinocytes; type: cell-based; conditions: +2NBDG 50 μM, 24 h
# Protocol: HaCaT cells (5×10^4) were seeded in 96-well black plates and incubated for 24 h. Then, medium was removed and the cells cultivated in OptiMEM, labeled with 50 μM 2-NBDG (2-[N-(7-nitrobenz-2-oxa-1,3-diazol-4-yl) amino]-2-deoxy-D-glucose and treated with the test substances or the positive control, Rosiglitazone, for 24 h. Medium was removed and the wells were carefully washed with PBS and incubated in PBS (100 μl/well). Finally the fluorescence was measured using the Incucyte FLR software, the data were analyzed by the total green object integrated intensity (GCU×μm2×Well) of the imaging system IncuCyte HD (Essen BioScience). The fluorescence of Rosiglitazone is taken as 100% of glucose uptake, and the glucose uptake was calculated as (% Glucose uptake)=100(T−B)/(R−B), where T (treated) is the fluorescence of test substance-treated cells, B (Basal) is the fluorescence of 2-NBDG cells and […] is the fluorescence of cells treated with Rosiglitazone.
# STAT3 = STAT3 activity in HeLa-STAT3-luc cells stimulated with IFN-γ (luciferase); type: cell-based; conditions: +IFNγ 25 U/ml
# Protocol: HeLa-STAT3-luc cells were stably transfected with the plasmid 4×M67 pTATA TK-Luc. Cells (20×10^3 cells/ml) were seeded 96-well plate the day before the assay. Then the cells were treated with the test substances for […] and then stimulated with IFN-γ 25 IU/ml. After 6 h, the cells were washed twice with PBS and lysed in […] lysis buffer containing 25 mM Tris-phosphate (pH 7.8), 8 mM MgCl2, 1 mM DTT, 1% Triton X-100, and 7% glycerol during […] at RT in a horizontal shaker. Luciferase activity was measured using GloMax 96 microplate luminometer (Promega) following the instructions of the luciferase assay kit (Promega, Madison, Wis., USA). […] The experiments for each concentration of the test items were done in triplicate wells.
# NF-κB = NF-κB activity in NIH3T3-KBF-Luc cells stimulated with TNFα (luciferase); type: cell-based; conditions: +30 ng/ml TNFα
# Protocol: NIH3T3-KBF-Luc cells were stably transfected with the KBF-Luc plasmid (Sancho (2003) Mol Pharmacol 63:429-438), which contains three copies of NF-κB binding site (from major histocompatibility complex promoter), fused to a minimal simian virus 40 promoter driving the luciferase gene. Cells (1×10^4 for NIH3T3-KBF-Luc) were seeded the day before the assay on 96-well plate. Then the cells were treated with the test substances for 15 min and then stimulated with 30 ng/ml of TNFα. After 6 h, the cells were washed twice with PBS and lysed in 50 μl lysis buffer containing 25 mM Tris-phosphate (pH 7.8), 8 mM MgCl2, 1 mM DTT, 1% Triton X-100, and 7% glycerol during 15 min at RT in a horizontal shaker. Luciferase activity was measured using a GloMax 96 microplate luminometer (Promega) following the instructions of the luciferase assay kit (Promega, Madison, Wis., USA). […] The experiments for each concentration of the test items were done in triplicate wells.
# [2] = test system: normal human epidermal keratinocytes (NHEK); assay: Cytotoxicity on NHEK monolayer (MTT reduction assay and morphological observation); type: cell-based; conditions: for Viability (%) Mean / Viability (%): MTT; for Viability (%): single values; for Morph. obs.: microscope
# Protocol: To determine the cytotoxicity of flavonoid-5-O-α-L-rhamnosides tests were performed versus their aglycon derivatives in cell monolayer cultures. For this purpose concentrations ranging from 1 μM to 250 μM were chosen. The viability of normal human epidermal keratinocytes (NHEK) was twice evaluated by a MTT reduction assay and morphological observation with a microscope. NHEK were grown at 37° C. and 5% CO2 aeration in Keratinocyte-SFM medium supplemented with epidermal growth factor (EGF) at 0.25 ng/mL, pituitary extract (PE) at 25 μg/mL and gentamycin (25 μg/mL) for 24 h and were used at the 3rd passage. For cytotoxicity testing, pre-incubated NHEK were given fresh culture medium containing a specific concentration of test compound and incubated for 24 h. After a medium change at same test concentration cells were incubated a further 24 h until viability was determined. Test results are given in Table B2 and illustrated in FIG. 10.
# PGE2 = assay: Anti-inflammatory potential: secreted PGE2 in stimulated NHEK (ELISA); type: cell-based, human; conditions: PMA - 1 μg/ml, reference at 10^−6M, cytokine type not given
# Protocol: NHEK were pre-incubated for 24 h with the test compounds. The medium was replaced with the NHEK culture medium containing the inflammatory inducers (PMA or Poly I:C) and incubated for another 24 hours. Positive and negative controls ran in parallel. At the endpoint the culture supernatants were quantified of secreted IL-8, PGE2 and TNF-α, by means of ELISA.
# fibronectin = assay: Stimulation of fibronectin synthesis in NHDF (ELISA); type: cell-based, human; conditions: 72 h incubation, 10 ng/ml
# Protocol: Tests were performed with normal human dermal fibroblast cultures at the 8th passage. Cells were grown in DMEM supplemented with glutamine at 2 mM, penicillin at 50 U/mL and streptomycin (50 μg/mL) and 10% of fetal calf serum (FCS) at 37° C. in a 5% CO2 atmosphere.
# Fibroblasts were cultured for 24 hours before the cells were incubated with the test compounds for further 72 hours. After the incubation the culture supernatants were collected in order to measure the released quantities of procollagen I, VEGF, and fibronectin by means of ELISA. Reference test compounds were vitamin C (procollagen I), PMA (VEGF), and TGF-β (fibronectin).
molecule,measurement,setting,value
Cc1cc(C(C)(C)C)c(O)c(C(C)(C)C)c1 [BHT],C11-fluor (AU) Mean (1/GMFI),[1],3.3E−04 AU
same,lipid peroxide % Irradiated control,[1],72%
same,lipid peroxide Protection %,[1],37%
same,C11-fluor (AU) 1/GMFI,[1]; single values,3.2E−04 AU and 3.3E−04 AU and 3.5E−04 AU
same,C11-fluor (AU) GMFI,[1]; single values,3139 AU and 3047 AU and 2877 AU
"COc1ccc(-c2coc3cc(O)cc(O[C@@H]4O[C@@H](C)[C@H](O)[C@@H](O)[C@H]4O)c3c2=O)cc1 [BR2, Biochanin A 5-O-α-L-rhamnoside]",% Glucose uptake (Rosiglitazone = 100%),HaCaT cells; 25 μM,77.5%
same,Mean (fluorescence),HaCaT cells; 25 μM,1027608
same,Measure 1 (fluorescence),HaCaT cells; 25 μM,998132
same,Measure 2 (fluorescence),HaCaT cells; 25 μM,1149619
same,Measure 3 (fluorescence),HaCaT cells; 25 μM,935073
same,RFU specific,HaCaT cells; 25 μM,994522 RFU
same,% Glucose uptake (Rosiglitazone = 100%),HaCaT cells; 50 μM,129.0%
same,Mean (fluorescence),HaCaT cells; 50 μM,1688513
same,Measure 1 (fluorescence),HaCaT cells; 50 μM,1657600
same,Measure 2 (fluorescence),HaCaT cells; 50 μM,1788604
same,Measure 3 (fluorescence),HaCaT cells; 50 μM,1619334
same,RFU specific,HaCaT cells; 50 μM,1655427 RFU
same,% Activation (STAT3; IFNγ = 100%),STAT3; 25 μM,109.76%
same,RLU 1,STAT3; 25 μM,11157 RLU
same,RLU 2,STAT3; 25 μM,10163 RLU
same,RLU 3,STAT3; 25 μM,10660 RLU
same,RLU MEAN,STAT3; 25 μM,10660 RLU
same,RLU specific,STAT3; 25 μM,8825 RLU
same,% Activation (STAT3; IFNγ = 100%),STAT3; 50 μM,93.74%
same,RLU 1,STAT3; 50 μM,7983 RLU
same,RLU 2,STAT3; 50 μM,9023 RLU
same,RLU 3,STAT3; 50 μM,11110 RLU
same,RLU MEAN,STAT3; 50 μM,9372 RLU
same,RLU specific,STAT3; 50 μM,7537 RLU
same,% Activation (NF-κB; TNFα = 100%),NF-κB; 10 μM,138.3%
same,RLU 1,NF-κB; 10 μM,205410 RLU
same,RLU 2,NF-κB; 10 μM,202640 RLU
same,RLU 3,NF-κB; 10 μM,202940 RLU
same,RLU MEAN,NF-κB; 10 μM,203663 RLU
same,RLU specific,NF-κB; 10 μM,180300 RLU
same,% Activation (NF-κB; TNFα = 100%),NF-κB; 25 μM,163.2%
same,RLU 1,NF-κB; 25 μM,237390 RLU
same,RLU 2,NF-κB; 25 μM,235850 RLU
same,RLU 3,NF-κB; 25 μM,235350 RLU
same,RLU MEAN,NF-κB; 25 μM,236197 RLU
same,RLU specific,NF-κB; 25 μM,212833 RLU
"COc1ccc(C2CC(=O)c3c(O)cc(O)cc3O2)cc1O (stereo not drawn) [Hesperetin, 3′,5,7-Trihydroxy-4′-methoxyflavanone]",Viability (%) Mean,[2]; 1 μM,105%
same,Viability (%),[2]; 1 μM,103% and 106%
same,Viability (%) Mean,[2]; 2.5 μM,103%
same,Viability (%),[2]; 2.5 μM,98% and 109%
same,Viability (%) Mean,[2]; 5 μM,106%
same,Viability (%),[2]; 5 μM,107% and 106%
same,Viability (%) Mean,[2]; 10 μM,103%
same,Viability (%),[2]; 10 μM,101% and 105%
same,Viability (%) Mean,[2]; 25 μM,108%
same,Viability (%),[2]; 25 μM,106% and 109%
same,Viability (%) Mean,[2]; 50 μM,106%
same,Viability (%),[2]; 50 μM,106%
same,Viability (%) Mean,[2]; 100 μM,99%
same,Viability (%),[2]; 100 μM,98% and 100%
same,Viability (%) Mean,[2]; 250 μM,57%
same,Viability (%) Mean,"[2]; 250 μM, listed as hesperetin",about 50%
same,Viability (%),[2]; 250 μM,54% and 59%
COc1ccc2c(c1)c(CC(=O)O)c(C)n2C(=O)c1ccc(Cl)cc1 [Indomethacin],% stim. control,PGE2,2%
same,Cytokine [pg/mL] Mean,PGE2,39 pg/mL
same,Cytokine,PGE2; single values,39 pg/mL
"O=C1CC(c2ccc(O)cc2)Oc2cc(O)cc(O)c21 (stereo not drawn) [Naringenin, 4′,5,7-Trihydroxyflavanone]",Viability (%) Mean,[2]; 1 μM,95%
same,Viability (%),[2]; 1 μM,96% and 95%
same,Viability (%) Mean,[2]; 2.5 μM,93%
same,Viability (%),[2]; 2.5 μM,95% and 92%
same,Viability (%) Mean,[2]; 5 μM,92%
same,Viability (%),[2]; 5 μM,93% and 91%
same,Viability (%) Mean,[2]; 10 μM,95%
same,Viability (%),[2]; 10 μM,95%
same,Viability (%) Mean,[2]; 25 μM,92%
same,Viability (%),[2]; 25 μM,89% and 94%
same,Viability (%) Mean,[2]; 50 μM,89%
same,Viability (%),[2]; 50 μM,85% and 94%
same,Viability (%) Mean,[2]; 100 μM,75%
same,Viability (%),[2]; 100 μM,76% and 74%
same,Viability (%) Mean,[2]; 250 μM,47%
same,Viability (%) Mean,"[2]; 250 μM, listed as naringenin",about 50%
same,Viability (%),[2]; 250 μM,48% and 47%
same,Morph. obs.,[2]; 100 μM,"+/−,*"
same,Morph. obs.,[2]; 250 μM,"+/−,*"
TGF-β [listing 1 of 2 here],Fibronectin % Control,fibronectin,181%
same,Fibronectin % Stimulation,fibronectin,81%
same,"Fibronectin (ng/ml), single replicates",fibronectin,10870 ng/mL
TGF-β [listing 2 of 2 here],"Fibronectin (ng/ml), single replicates",fibronectin,11178 ng/mL and 11128 ng/mL
